Values of other authors, collected in US11633350B2, “Hypotonic microbicidal formulations and methods of use” (priority 2014, dated 2023).

Assays:
HIV = conditions: PK/PD models

Structure (SMILES)	systemic (blood) TFV peak (Cmax) concentration (after a single oral TDF dose) [ng/mL]	time to protection (in vivo) [days]	time to achieve protective concentrations of TFV-DP in tissue (in vivo, po)	plasma concentration associated with 90% protection (EC90) (HIV) [µg/mL]
CC(C)OC(=O)OCOP(=O)(CO[C@H](C)Cn1cnc2c(N)ncnc21)OCOC(=O)OC(C)C.O=C(O)/C=C/C(=O)O [TDF, 2,4,6,8-Tetraoxa-5-phosphanonanedioic acid, 5-[[(1R)-2-(6-amino-9H-purin-9-yl)-1-methylethoxy]methyl]-, bis(1-methylethyl) ester, 5-oxide, (2E)-2-butenedioate (1:1)]	350	3	one week	
C[C@H](Cn1cnc2c(N)ncnc21)OCP(=O)(O)O [tenofovir, (R)-9-(2-phosphonylmethoxypropyl)adenine]				0.107
